Experimental data: patent EP4806435A1, “DIHYDROCHROMENE-DERIVATIVE-CONTAINING THERAPEUTIC AGENT FOR CANCER” (Sumitomo Pharma Co., Ltd., priority 2023, dated 2025)

Legend:
[1] = tested on: U-87 cells; experiment: Cytotoxicity assay of metabolites under sphere culture conditions (ATP); format: cell-based; conditions: Homo sapiens, U-87 MG, 168 h, 7 days in sphere medium, read-out: IC50 (cytotoxicity, cell viability by ATP)
Experimental: U-87 cells were cultured for 7 days in sphere medium in the presence of metabolites M2, M4, and M5, respectively. After culture, cellular ATP levels were quantified as an indicator of cell viability, and cell viability was calculated in the same manner as in Example 12 to compare cytotoxicity.

[2] = tested on: mouse; experiment: 4-week mouse toxicity study (GLP); format: in vivo
Experimental: (§1) The initial starting dose of 20 mg/day (expressed as the present compound) was determined in accordance with the ICH S9 guideline of International Council for Harmonisation of Technical Requirements for Pharmaceuticals for Human Use (ICH). Based on a 4-week mouse toxicity study conducted in compliance with Good Laboratory Practice (GLP), the dose causing severe toxicity in 10% of the test animals (STD10) was determined to be 50 mg/kg. Applying a safety factor of 10 and interspecies scaling, the starting dose for this first-in-human (FIH) study was calculated to be 0.4 mg/kg, corresponding to a fixed dose of 24 mg for a 60-kg human. In a 4-week non-human primate toxicity study conducted in compliance with Good Laboratory Practice (GLP), the highest non-severely toxic dose (HNSTD) was determined to be 7.5 mg/kg. Applying a safety factor of 6 and interspecies scaling, the starting dose in humans was estimated to be 0.4 mg/kg, corresponding to a fixed dose of 24 mg. The final recommended starting dose for the first-in-human (FIH) study was rounded to 20 mg/day.

[3] = tested on: non-human primate; experiment: 4-week non-human primate toxicity study (GLP); format: in vivo
Experimental: as §1

[4] = tested on: U-87 GBM xenografts; experiment: Tumor shrinkage in mice bearing U-87 GBM xenografts; format: in vivo
[5] = tested on: U-87 cells (IDH1 wild-type); experiment: Cytotoxicity, sphere culture with LDL, combination with ezetimibe (ATP); format: cell-based, human; conditions: ezetimibe at 3.3, 10, or 30 µM; 7 days; LDL 5 µg/mL
Experimental: U-87 cells were cultured for 7 days in sphere medium supplemented with LDL at a concentration of 5 µg/mL, with either ezetimibe (a cholesterol absorption inhibitor) added at 3.3, 10, or 30 µM, Compound 1 added at 1 µM, or a combination of both agents. Cell viability was calculated in the same manner as in Example 12, and the cytotoxic effects of each treatment were compared between single-agent and combination conditions.

## CC1(C)Oc2cc(Cl)ccc2[C@@H]2OCC3(CCNCC3)C[C@H]21 [Compound M4]
[1]
  IC50: 1600 nM

## CC1(C)Oc2cc(Cl)ccc2[C@@H]2OCC3(CCN(CCNC(=O)CNC=O)CC3)C[C@H]21 [Compound M2, N-2-[(4'aR,10'bR)-8'-chloro-5',5'-dimethyl-4'a,10'b-dihydro-2'H,4'H,5'H-spiro[piperidine-4,3'-pyrano[3,2-c][1]benzopyran]-1-yl]ethyl-N^2-formylglycinamide]
[1]
  IC50: 3600 nM

## CC1(C)Oc2cc(Cl)ccc2[C@@H]2OCC3(CCN(CCO)CC3)C[C@H]21 [Compound M5, 2-[(4'aR,10'bR)-8'-chloro-5',5'-dimethyl-4'a,10'b-dihydro-2'H,4'H,5'H-spiro[piperidine-4,3'-pyrano[3,2-c][1]benzopyran]-1-yl]ethan-1-ol]
[1]
  IC50: 2100 nM

## CC1(C)Oc2cc(Cl)ccc2[C@@H]2OCC3(CCN(CCn4ccnc4)CC3)C[C@H]21 [the present compound, (4'aR,10'bR)-8'-chloro-1-[2-(1H-imidazol-1-yl)ethyl]-5',5'-dimethyl-4'a,10'b-dihydro-2'H,4'H,5'H-spiro[piperidine-4,3'-pyrano[3,2-c][1]benzopyran]]
[2]
  dose causing severe toxicity in 10% of the test animals (STD10): 50 mg/kg
[3]
  highest non-severely toxic dose (HNSTD): 7.5 mg/kg
[4]; HED of 3 mg/kg in mice bearing U-87 GBM xenografts
  minimum pharmacologically active dose in humans (human equivalent dose, HED): 15 mg
[4]; mice bearing U-87 GBM xenografts
  dose at which a consistent tumor shrinkage effect was observed: 3 mg/kg

## O=C1[C@H](CC[C@H](O)c2ccc(F)cc2)[C@@H](c2ccc(O)cc2)N1c1ccc(F)cc1 [ezetimibe, reference compound]
[5]
  cytotoxicity, single agent: low cytotoxicity
